These results are taken from article PMC6690934, “High-density immobilization of a ginsenoside-transforming β-glucosidase for enhanced food-grade production of minor ginsenosides” (Applied Microbiology and Biotechnology, 2019).

For this test, the target named is T1, MT619 (Microbacterium testaceum, UniProt E8N6P7).
T1 construct: gene MTES_2447; codon-optimized synthetic gene (MK575514); E. coli BL21; purified by Ni and DEAE columns
T1 sequence (E8N6P7 1-619): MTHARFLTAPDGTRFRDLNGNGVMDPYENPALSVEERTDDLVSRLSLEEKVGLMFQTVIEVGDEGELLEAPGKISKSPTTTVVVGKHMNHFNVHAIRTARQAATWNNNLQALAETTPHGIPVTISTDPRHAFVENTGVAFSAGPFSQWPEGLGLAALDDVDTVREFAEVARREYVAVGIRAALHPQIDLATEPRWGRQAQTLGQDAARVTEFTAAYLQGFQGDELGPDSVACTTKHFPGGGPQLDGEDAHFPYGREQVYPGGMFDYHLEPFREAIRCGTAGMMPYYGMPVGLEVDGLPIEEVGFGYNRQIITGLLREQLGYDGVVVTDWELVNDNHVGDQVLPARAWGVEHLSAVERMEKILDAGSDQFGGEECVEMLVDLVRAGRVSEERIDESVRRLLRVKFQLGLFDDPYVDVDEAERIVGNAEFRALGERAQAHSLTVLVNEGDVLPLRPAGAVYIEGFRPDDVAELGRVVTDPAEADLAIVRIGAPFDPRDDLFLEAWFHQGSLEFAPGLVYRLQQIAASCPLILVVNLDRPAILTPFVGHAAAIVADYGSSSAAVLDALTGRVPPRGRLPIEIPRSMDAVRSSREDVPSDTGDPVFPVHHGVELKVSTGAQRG
The experiment in a line: TLC of hydrolysis products. The format is biochemical. The note with it: pH 7.0, 37 °C, 2.0 mg/mL substrate, 0.1 mg/mL enzyme.

The structures appear in SMILES notation.

As for `CC(C)=CCC[C@](C)(O[C@@H]1O[C@H](CO[C@@H]2O[C@H](CO)[C@@H](O)[C@H](O)[C@H]2O)[C@@H](O)[C@H](O)[C@H]1O)[C@H]1CC[C@]2(C)[C@@H]1[C@H](O)C[C@@H]1[C@@]3(C)CC[C@H](O[C@@H]4O[C@H](CO)[C@@H](O)[C@H](O)[C@H]4O[C@@H]4O[C@H](CO)[C@@H](O)[C@H](O)[C@H]4O)C(C)(C)[C@@H]3CC[C@]12C` [Rb1], the “TLC of hydrolysis products” value is “MT619 could clearly transform four major ginsenosides (Re, Rg1, Rb1, and Rd)”.
